Experiments:
HUVEC cells [1] = assay: Apoptotic nuclei in HUVEC, H&E staining; assay type: cell-based, human; details: wortmannin 4 nM or LY294002 2 μM, 24 hours
Experimental: To determine whether PI3K antagonists enhance the activities of intrinsic cell death mechanisms induced by irradiation, apoptosis in HUVEC cells was studied following PI3K inhibition. HUVEC cells were treated with wortmannin (4 nM) or with LY294002 (2 μM) as described in Example 2. Cells were treated 30 minutes later with 3 Gy of ionizing radiation. Cultures were stained 24 hours later with hematoxylin and eosin (H&E) to reveal apoptotic nuclei. Stained cells were then examined by light microscopy. For each treatment group, four high power fields (40× objective) were examined, and both the number of cells with apoptotic nuclei and the total number of cells were determined. From these numbers, the percentage of apoptotic cells for each group was calculated.

GL261 tumors = assay: Tumor volume assessment, growth delay, GL261; assay type: in vivo, C57BL/6 mice
Experimental: GL261 tumors were generated by subcutaneous injection of 10^6 cells into the right thighs of C57BL/6 mice as described in Example 6. […] An equal number of large and intermediate size tumors were present in each group. GL261 tumor-bearing mice were treated with 24 Gy ionizing radiation administered in 8 fractionated doses over 10 days. LY294002 was administered at 3 mg/kg by intraperitoneal injection 15 minutes prior to irradiation on days 1, 3, 5, and 7 of radiation therapy. Control mice received identical doses and schedules of either LY294002 alone or radiation alone. Twice each week, tumor volumes were measured using skin calipers as previously described (Grugel et al., 1995; […] et al., 1998; Staba et al., 1998). Briefly, tumor volumes were calculated using the formula: a×b×c/2, where a=maximal width dimension, b=maximal length dimension, and c=maximal depth dimension, which was derived from the formula for calculating the volume of an ellipsoid (πd^3/6). Data were calculated as the percent of original (day 0) tumor volume and graphed as fractional tumor volume plus or minus one standard deviation for each treatment group. Growth delay was defined as the number of days required for tumors to reach a volume of 1 cm^3. Untreated control tumors reached 1 cm^3 at 7 days.

Akt = assay: Western blot of radiation-induced Akt phosphorylation in HUVEC; assay type: cell-based, human; details: HUVEC
Description: HUVEC cells were obtained from Clonetics and were maintained in EBM-2 medium supplemented with EGM™-2MV SINGLEQUOTS® (Bio-Whittaker, Inc., Walkersville, Md., United States of America). An Eldorado-8 Cobalt-60 teletherapy unit (Atomic Energy of Canada Limited, Mississauga, Ontario, Canada) was used to irradiate endothelial cell cultures at a dose rate of 0.84 Gy per minute. Delivered doses ranging from 0 to 12 Gy were verified by use of thermoluminescence detectors.
In order to determine if Akt is phosphorylated in response to irradiation, cultured HUVEC cells were serum starved for 4 hours, exposed to irradiation, and the phosphorylation of Akt was examined in cell extracts by Western blotting. Total cellular protein was extracted after radiation treatment as follows. Cells were counted and then washed with iced-cold PBS twice before the addition of lysis buffer (M-PER™ mammalian protein extraction reagent; Pierce Chemical Company, Rockford, Ill., United States of America; or 20 mM Tris, 150 mM NaCl, 1 mM EDTA, 1% Triton X-100, 2.5 mM sodium pyrophosphate, 1 mM phenylmethylsulphonyl fluoride (PMSF), and […] Leupeptin (Roche Molecular Biochemicals, Indianapolis, Ind., United States of America)). Protein concentrations were quantified using the Biorad method (Bradford, 1976). 50 μg protein was loaded into each well of an 8% sodium dodecyl […]-polyacrylamide gel electrophoresis (SDS-PAGE) gel and separated by electrophoresis. The proteins were subsequently transferred onto 0.45 μm nitrocellulose membranes. Membranes were blocked by incubation for 2 hours at room temperature in phosphate buffered saline-Triton (PBST: 0.9% NaCl, 0.3% Triton X-100, pH 7.4) containing 10% nonfat dry milk.
The presence of Akt protein on the membrane was determined as follows. The membranes were incubated with a 1:1000 dilution of rabbit antibody directed against either phosphorylated (Ser473) or non-phosphorylated human Akt overnight at 4° C. Rabbit antibodies were obtained from Cell Signaling Technology, Beverly, Mass., United States of America. The blots were then washed with PBST to remove unbound rabbit antibodies. The washed blots were then incubated for 1 hour at room temperature with a donkey anti-rabbit IgG secondary antibody (Amersham Biosciences, Piscataway, N.J., United States of America) diluted 1:1000 in PBST. The blots were again washed with PBST to remove unbound donkey antibodies. The presences of both phosphorylated and non-phosphorylated human Akt were determined by chemiluminescent detection of donkey anti-rabbit/rabbit anti-human Akt complexes using the ECL™ detection system (Amersham Biosciences) according to the manufacturer's protocol, followed by autoradiography. […]

HUVEC cells [2] = assay: Clonogenic survival analysis of HUVEC; assay type: cell-based, human
Experimental: The ability of PI3K antagonist to suppress the clonogenic potential of HUVEC cells treated with radiation was assayed by clonogenic survival analysis. The ability of HUVEC cells treated with LY294002 30 minutes prior to irradiation to form colonies was compared to that of HUVEC cells treated with either radiation or LY294002 alone, and also to that of untreated HUVEC cells. […] Briefly, groups of three HUVEC culture plates were treated at each of four radiation dose levels: 2, 4, 6, and 8 Gy, either with or without prior treatment with PI3K antagonists as described in Example 2. After treatment with radiation and/or antagonists, cells were trypsinized, counted by hemocytometer, and subcultured into fresh medium. After 14 days, the cells were fixed with cold methanol and stained with 1% methylene blue. Colonies with greater than 50 cells were counted and the surviving fraction was determined.
To determine whether broad spectrum RTK inhibition enhances the cytotoxic effects of radiation on vascular endothelium, SU11248 was added 30 minutes prior to irradiation. HUVECs were treated with vehicle control, and either 100 nM SU11248 orvehicle combined with 6 Gy.

Structure (SMILES): O=c1cc(N2CCOCC2)oc2c(-c3ccccc3)cccc12 [LY294002, 2-(4-Morpholinyl)-8-phenyl-4H-1-benzopyran-4-one]
- apoptotic nuclei, % of cells (HUVEC cells [1]; HUVEC pretreated 30 minutes before 3 Gy): 16%
- apoptotic cells (HUVEC cells [1]; unirradiated HUVEC): 2%
- growth delay: days for tumors to reach 1 cm^3 (GL261 tumors; 3 mg/kg i.p. 15 minutes prior to irradiation on days 1, 3, 5, 7, 24 Gy in 8 fractions): > 15 days
- growth delay: days for tumors to reach 1 cm^3 (GL261 tumors; 3 mg/kg i.p. on days 1, 3, 5, 7, alone, untreated 7 days): 9 days
- total Akt levels (Akt; wortmannin 4 nM or LY294002 2 μM): no effect
- Akt phosphorylation following irradiation (Akt; wortmannin 4 nM or LY294002 2 μM added 30 minutes prior to irradiation, 3 Gy): strong inhibition
- radiation-induced cytotoxicity compared to radiation alone (HUVEC cells [2]; HUVEC treated 30 minutes prior to 2, 4, 6, 8 Gy, p<0.05): significantly enhanced
- plating efficiency, % of untreated control cells (HUVEC cells [2]; unirradiated HUVEC treated for 30 minutes): 70%
